Laboratory results reported in patent US20040229268A1, “Method and kit for identifying antibiotic-resistant microorganisms” (priority 2003, published 2004).
Marks after values point to notes of the source that are not given here.

Tested on: VanA and VanB gene sequences
Test: HPA for detecting VanA and VanB gene sequences (Example 12)
Assay type: binding, E. faecalis, E. faecium
Protocol: Double-stranded plasmids harboring inserts of either VanA or VanB gene sequences were prepared for use as control templates. More specifically, VanA gene sequences were amplified in a PCR protocol using primers having the sequences of VanA(+)464 Kpn and VanA(−)1325Bam. Similarly, VanB gene sequences were amplified using primers having the sequences of VanB(+)084 Kpn and VanB(−)1006Bam. Genomic DNA samples from bacteria known to have VanA or VanB genotypes were used as templates in the amplification reactions. Blunt-ended amplification products containing VanA gene sequences were ligated into a pPCR-[…] SK(+) (Stratagene; La Jolla, Calif.) plasmid cloning vector, and propagated in E. coli host bacteria using procedures that will be familiar to those having an ordinary level of skill in the art. Double-stranded amplification products containing VanB gene sequences were first digested with KpnI and BamHI, and then ligated into a similarly cleaved pBLUESCRIPT-II KS(+) (Stratagene; La Jolla, Calif.) plasmid cloning vector. Isolated double-stranded plasmid DNA served as controls in hybridization assays.
2′-deoxy probes having the sequences presented under Example 10 were prepared by standard phosphoramidite synthesis. AE labeling of the probes also was performed using standard procedures, as described herein and as will be familiar to those having an ordinary level of skill in the art. Samples of four different cultured VRE bacteria described under the previous Example were lysed essentially as described above. RNA in the samples was hydrolyzed and DNA denatured by incubation of the lysate with hydroxide at elevated temperature. In parallel procedures, samples of two plasmid clones harboring either the VanA or VanB inserts (as described under the previous Example) were also treated to denature DNA. All samples were neutralized by addition of a buffered HCl reagent. AE-labeled probes were added to each of the samples and then hybridized at 55-60° C. for 45 minutes to permit formation of complementary probe:target duplexes. The pan-bacterial probe (Probe Reagent 1, GEN-PROBE® MTC-NI Kit, catalog no. 4573) described under Example 2 was used as a positive control to confirm the presence of bacterial nucleic acid targets. Trials containing labeled probe in the absence of an added target (i.e., “probe alone”) served as negative controls. The AE label joined to probe molecules that remained single-stranded following the hybridization procedure were destroyed by treatment under mild alkaline conditions, and the extent of specific hybrid formation quantified by luminometry as described in the foregoing Examples.

GAGCTTTGAATATCGCAGCCTAC (AE label linker 11/12, chemistry not fully specified; listed as Enterococcus faecalis) [Van A&B(−)734]
Probe Hybridization (in RLU) (ATCC 51299 (VanB), E. faecalis lysate): 5497 RLU
Probe Hybridization (in RLU) (ATCC 51575 (VanB), E. faecalis lysate): 5166 RLU
Probe Hybridization (in RLU) (ATCC 700221 (VanA), E. faecium lysate): 8901 RLU
Probe Hybridization (in RLU) (ATCC 700802 (VanB), E. faecalis lysate): 7425 RLU
Probe Hybridization (in RLU) (Probe Alone (no added target)): 240 RLU
Probe Hybridization (in RLU) (VanA clone (plasmid)): 48999 RLU
background-corrected hybridization signal relative to negative control (fold greater than background) (VanA-positive bacterial sample ATCC # 700221): about 36 fold
Probe Hybridization (in RLU) (VanB clone (plasmid)): 718† RLU
background-corrected hybridization signal relative to negative control (fold greater than background) (average over VanB-positive bacterial samples ATCC Nos. 51575, 700802 and 51299): about 24 fold
hybridization signal (in words) (nucleic acids from VRE bacteria either VanA-positive or VanB-positive): very strong signals
